From PMC12040169 (PLOS Biology, 2025)

Test: in vitro
Conditions: human, hela cells, % viability

SMILES | viability at 28.5 h, 10 µM [%]
COc1cccc(-c2cnc(N)c(N3CCN(CCN(C)C)CC3)n2)c1 [CBK063561] | 108
COCCNc1nc(-c2cccc3ccccc23)cnc1N [CBK063574] | 99.1
Nc1ncc(-c2cncnc2)nc1NCc1ccccc1 [CBK063584] | 103
Nc1ncc(-c2cccc3ccccc23)nc1NC1CCCCC1 [CBK063588] | 94
CC(C)(CO)CNc1nc(-c2ccc(F)cc2)cnc1N [CBK063589] | 95.7
CC(=O)c1ccc(-c2cnc(N)c(NC3CCCCC3)n2)s1 [CBK063596] | 106
Nc1ncc(-c2ccsc2)nc1NCc1ccncc1 [CBK063614] | 107
Nc1ncc(-c2cccc3cccnc23)nc1NCc1ccncc1 [CBK063622] | 87.4
Nc1ncc(-c2ccncc2)nc1NCCCN1CCOCC1 [CBK063631] | 98.9
Nc1ncc(-c2ccoc2)nc1NCc1ccncc1 [CBK063656] | 95.1
Nc1ncc(-c2cccc3ccccc23)nc1Nc1ccc2[nH]ccc2c1 [CBK063659] | 90.9
NC(=O)c1cccc(-c2cnc(N)c(NCc3ccco3)n2)c1 [CBK063660] | 116
Nc1ncc(-c2ccc3c(c2)OCO3)nc1Nc1ccc2[nH]ccc2c1 [CBK063667] | 94.6
Nc1ncc(-c2ccco2)nc1NCc1ccco1 [CBK063682] | 91.8
Nc1ncc(-c2ccc(O)cc2)nc1N1CCN(CCO)CC1 [CBK063685] | 105
Nc1ncc(-c2cccc(/C=C/C(=O)O)c2)nc1NCc1ccco1 [CBK063691] | 98.7
CC(C)[C@H](CO)Nc1nc(-c2cccc3ccccc23)cnc1N [CBK063701] | 101
COc1ccccc1-c1cnc(N)c(N[C@H](C)c2ccccc2)n1 [CBK063705] | 102
CC(C)CNc1nc(-c2cc(C(F)(F)F)cc(C(F)(F)F)c2)cnc1N [CBK063708] | 85.7
CC(C)[C@H](CO)Nc1nc(-c2ccc(S(C)(=O)=O)cc2)cnc1N [CBK063718] | 110
COc1ccccc1-c1cnc(N)c(N[C@@H](C)c2ccccc2)n1 [CBK063721] | 107
CC(C)[C@@H](CO)Nc1nc(-c2cccc3ccccc23)cnc1N [CBK063725] | 95.2
CC(C)[C@@H](CO)Nc1nc(-c2occc2C=O)cnc1N [CBK063733] | 102

SMILES | viability at 28.5 h, 10 µM [%]
COc1cncc(-c2cnc(N)c(N[C@@H](CO)C(C)C)n2)c1 [CBK063734] | 106
CC(C)[C@@H](CO)Nc1nc(-c2ccc(S(C)(=O)=O)cc2)cnc1N [CBK063750] | 91.2
C[C@H](Nc1nc(-c2ccc(-c3ccccc3)cc2)cnc1N)c1ccccc1 [CBK063760] | 93.5
COc1cc(-c2cnc(N)c(N[C@H](CO)C(C)C)n2)cc(OC)c1OC [CBK063765] | 113
C[C@H](Nc1nc(-c2cccc3ncccc23)cnc1N)c1ccccc1 [CBK063771] | 97.6
Nc1ncc(-c2occc2C=O)nc1NC1CCOCC1 [CBK063789] | 103
Nc1ncc(-c2ccccc2CO)nc1NC1CCOCC1 [CBK063799] | 98.7
Nc1ncc(-c2cc(C(F)(F)F)cc(C(F)(F)F)c2)nc1NC1CCC(O)CC1 (centres unmarked) [CBK063808] | 92
CCCC/C=C/c1cnc(N)c(Nc2ccc3[nH]ccc3c2)n1 [CBK063811] | 95.7
Nc1ncc(-c2ccco2)nc1NCC1CCOCC1 [CBK063825] | 100
COc1ccc(C(C)C)cc1-c1cnc(N)c(Nc2ccc3[nH]ccc3c2)n1 [CBK063827] | 97.1
Nc1ncc(-c2cccnc2)nc1NC1CCC(O)CC1 (centres unmarked) [CBK063840] | 92.7
COc1ccc(-c2cnc(N)c(NC3CCOCC3)n2)c(OC)c1OC [CBK063844] | 113
CC(=O)Nc1cccc(-c2cnc(N)c(NC3CCOCC3)n2)c1 [CBK063845] | 107
Nc1ncc(-c2ccsc2)nc1NCC1CCOCC1 [CBK063848] | 102
CS(=O)(=O)c1ccc(-c2cnc(N)c(NCC3CCOCC3)n2)cc1 [CBK063849] | 103
COc1ccccc1-c1cnc(N)c(NC2CCOCC2)n1 [CBK063853] | 104
COc1ccc(-c2cnc(N)c(NCC(C)C)n2)c(OC)c1OC [CBK063855] | 95.4
Nc1ncc(-c2cccc(F)c2)nc1NCC1CCOCC1 [CBK063860] | 98.7
CC(C)CNc1nc(-c2cccc(O)c2)cnc1N [CBK063862] | 99.1
CS(=O)(=O)c1ccc(-c2cnc(N)c(NC3CCC(O)CC3)n2)cc1 (centres unmarked) [CBK063865] | 110
Nc1ncc(-c2cncnc2)nc1NC1CC1 [CBK063869] | 101
Nc1ncc(-c2cncnc2)nc1NCC1CCOCC1 [CBK063877] | 98.1

SMILES | viability at 28.5 h, 10 µM [%]
Nc1ncc(-c2ccncc2)nc1NCc1cccnc1 [CBK063879] | 103
CCCC/C=C/c1cnc(N)c(Nc2ccc(OC)cc2)n1 [CBK063890] | 93.9
Nc1cccc(-c2nc(-c3cccnc3)cnc2N)c1 [CBK063906] | 95.3
Nc1cccc(-c2nc(-c3cncnc3)cnc2N)c1 [CBK063907] | 102
CN(C)CCN1CCN(c2nc(-c3occc3C=O)cnc2N)CC1 [CBK063917] | 96.3
Nc1cccc(-c2nc(-c3cccs3)cnc2N)c1 [CBK063923] | 94.5
CN(C)c1ccc(-c2nc(-c3cccc(OC(F)(F)F)c3)cnc2N)cc1 [CBK063942] | 98.3
COc1ccc(-c2nc(-c3cccc(F)c3)cnc2N)cc1OC [CBK063948] | 98.4
CC(C)[C@H](CO)Nc1nc(-c2ccc(F)c(Cl)c2)cnc1N [CBK063949] | 109
COc1ccc(Nc2nc(-c3cccnc3)cnc2N)cc1 [CBK063952] | 90.3
CCCC/C=C/c1cnc(N)c(-c2cccc(N)c2)n1 [CBK063954] | 102
CC(C)[C@H](CO)Nc1nc(-c2cccc(OC(F)(F)F)c2)cnc1N [CBK063957] | 85.7
NCC1CCN(c2nc(-c3cc(C(F)(F)F)cc(C(F)(F)F)c3)cnc2N)CC1 [CBK063960] | 87.3
COc1ccc(-c2cnc(N)c(-c3ccc(F)c(Cl)c3)n2)cn1 [CBK063966] | 111
CN(C)c1cccc(-c2nc(-c3ccco3)cnc2N)c1 [CBK063970] | 89.2
CN(C)c1cccc(-c2nc(-c3cccs3)cnc2N)c1 [CBK063979] | 93.5
Nc1ncc(-c2ccoc2)nc1-c1ccc(F)c(Cl)c1 [CBK063982] | 93.9
COCOc1ccc(-c2nc(-c3cnc(OC)nc3OC)cnc2N)cc1 [CBK063991] | 91.9
COCOc1ccc(-c2nc(-c3cccnc3)cnc2N)cc1 [CBK063999] | 93.6
Nc1ncc(-c2ccccc2)nc1-c1ccc(O)cc1 [CBK064030] | 96.7
CN(C)c1cccc(-c2nc(-c3ccc(C#N)cc3)cnc2N)c1 [CBK064049] | 91.5
Nc1ncc(-c2cccnc2)nc1-c1ccc(C(=O)N2CCOCC2)cc1 [CBK064059] | 93.4
